Test results: EP0059817A1, “Serpentine, alstonine and sempervirine drugs for the specific inhibition of tumurous and cancerous cells” (priority 1981, dated 1982)

Columns and labels:
virus de la grippe = type: in vivo, souris SWISS; conditions: doses comparables
[1] = system: Cellules primaires de reins de singe; experiment: cell culture cytotoxicity, normal cells; type: cell-based
Protocol: Des cultures de cellules saines (cellules primaires de reins de singe, cellules de lignée "Vero" et "SIRC") et des cultures de cellules cancéreuses (cellules K.B., cellules Hela, cellules Hep II et cellules L)ont reçu une dose de 200 Mg, soit de serpentine, soit d'alstonine, soit de sempervirine, par ml de culture.
(§1) L'effet cytotoxique spécifique, vis-à-vis des cellules tumorales utilisées, ne s'est jamais démenti au cours des très nombreuses expériences effectuées. Par contre, pour effectuer les cellules saines il a fallu des quantités d'alcaloides au moins dix fois plus grandes (plus de 2 mg/ml). (Les cultures de cellules in-vitro sans mycoplàsmes ont été effectuées dans les conditions classiques et en l'absence d'antibiotique qui pourraient fausser les résultats).
(§2) Les cellules cancéreuses et saines utilisées ne contenaient pas de mycoplasmes et le milieu de culture ne contenait pas d'antibiotique, ces derniers pouvant sensibiliser les cellules et par conséquent fausser les résultats.

cellules cancéreuses = experiment: cell culture cytotoxicity, cancer cells as a group; type: cell-based; conditions: 150 µg par ml de culture
Protocol: as §1, §2

Cellules Hela = experiment: cell culture cytotoxicity, cancer cells; type: cell-based; conditions: 150 µg dès l'ensemencement (per ml of culture); culture de 3 jours
Protocol: as §1, §2

Cellules K.B. = experiment: cell culture cytotoxicity, cancer cells; type: cell-based
Protocol: as §1, §2

Cellules L = experiment: cell culture cytotoxicity, cancer cells; type: cell-based; conditions: 150 µg dès l'ensemencement (per ml of culture)
Protocol: as §1, §2

ascite d'Ehrlich = experiment: Ehrlich ascites tumour in the mouse, flavopéreirine; type: in vivo, souris SWISS; conditions: for survie (surviving mice/total): i.p. 2 x 150 µg per day, 10 days from 24 h after inoculation
Protocol: En ce qui concerne l'activité de la flavopéreirine, vis-à-vis des tumeurs ascites d'Ehrlich de la souris, 30 souris SWISS de 20- 22 g ont été inoculées par voie intrapérito néale par 5 x 10^3 cellules ascite d'Ehrlich fraîchement prélevées.
Dix souris ont été gardées témoins et 20 souris ont été traitées 24 heures après l'inoculation par la flavopéreirine à raison de deux fois par jours (2 x 150 µg) par voie intrapéritonéale et pendant 10 jours consécutifs.
Les résultats du tableau VIII ci-après illustrent la survie des animaux pendant trois mois (une survie de plusieurs jours n'est pas prise en considération).

cellules saines = experiment: cell culture cytotoxicity, healthy cells as a group; type: cell-based; conditions: 150 µg par ml de culture
Protocol: as §1, §2

virus de la vaccine = system: virus de la vaccine; set-up: species or system lapin; conditions: in vivo
[2] = system: Cellules "Vero" (cellules de lignée); experiment: cell culture cytotoxicity, normal cells; type: cell-based; conditions: 150 µg dès l'ensemencement (per ml of culture)
Protocol: as §1, §2

lymphome YC 8 = experiment: lymphoma YC 8 of the mouse, flavopéreirine; type: in vivo, souris BALB c; conditions: for survie (surviving mice/total): i.p. 2 x 150 µg per day, 10 days from 24 h after inoculation
Source text: En ce qui concerne l'activité de la flavopéreirine vis-à-vis du lumphome YC 8 de la souris, 30 souris BALB c de 19-20 g ont été inoculées par voie intrapéritonéale par 10^4 cellules ascitiques du lymphome YC 8 fraîchement prélevées et en pleine division chez la souris.
Dix souris ont été gardées comme témoins et 20 souris ont été traitées 24 heures après inoculation.
La flavopéreirine est dissoute en milieu physiologique tamponné (pH 7,65) et deux injections par voie intrapéritonéale et par jour sont administrées, (2 x 150 µg de flavopéreirine) et ceci pendant 10 jours consécutifs.

[3] = 150 µg dès l'ensemencement (per ml of culture)

CCc1ccc2c3[nH]c4ccccc4c3cc[n+]2c1 [flavopéreirine]
activity against influenza compared with sempervirine (virus de la grippe): résultats tout à fait comparables | destruction des cellules [1, 3]: - Pas de destruc-tion pendant 7 jours | destruction des cellules ([1]; 200 µg/ml, en culture de 7 jours dès l'ensemencement): Pas de destruction pendant 8 jours | destruction des cellules cancéreuses (cellules cancéreuses): détruites en 24-48 heures | destruction des cellules (Cellules Hela): - Destruction to-tale en 24-48 heures | destruction des cellules (Cellules K.B.; [3]): - Destruction to-tale en 24-48 heures | destruction des cellules (Cellules K.B.; 200 µg/ml, en culture de 3 jours dès l'ensemencement): Destruction totale en 24-48 heures | destruction des cellules (Cellules L): - Destruction to-tale en 24-48 heures. | survie (surviving mice/total) (ascite d'Ehrlich; day 0): 20/20 | survie (surviving mice/total) (ascite d'Ehrlich; day 24): 17/20 | survie (surviving mice/total) (ascite d'Ehrlich; day 60): 11/20 | survie (surviving mice/total) (ascite d'Ehrlich; day 90): 11/20 | guérison (in words) (ascite d'Ehrlich; flavopéreirine alone, three months of observation, same results in souris BALB c): permet la guérison d'un important pourcentage de souris | destruction des cellules saines (cellules saines): ne sont pas détruites pendant les 7 jours d'observation | appearance of papules (virus de la vaccine): empêche l'apparition et le développement des papules virales | destruction des cellules [2]: - Pas de destruc-tion pendant 7 jours | survie (surviving mice/total) (lymphome YC 8; day 0): 20/20 | survie (surviving mice/total) (lymphome YC 8; day 21): 20/20 | survie (surviving mice/total) (lymphome YC 8; day 60): 17/20 | survie (surviving mice/total) (lymphome YC 8; day 90): 17/20 | state of the surviving mice (lymphome YC 8; voie I.P., more than three months of observation): développement étant tout à fait normal | survie de trois mois, share of treated mice (lymphome YC 8; voie sous-cutanée, 2 x 150 µg per day, 10 days): 70-80%
